Earlier results in patent publication US8518435B2 (priority 2011, dated 2013).

Legend:
[1] = tested on: rhinovirus IB; conditions: in vitro; J. Nat. Prod. (1994)
[2] = tested on: bacteria, viruses, parasites, and yeast/mold/fungus; conditions: in vitro (in a test tube)
[3] = tested on: influenza virus; conditions: mice infected with lethal doses of influenza virus, vs saline controls

For beta-sesquiphellandrone, the IC50 [1] is given as 0.44 µM.

For `COC(=O)C1=CO[C@@H](C)[C@@H](C=O)[C@@H]1CC(=O)[O-].COC(=O)C1=CO[C@@H](C)[C@@H](C=O)[C@@H]1CC(=O)[O-].[Ca+2]` [calcium elenolate], the “effectiveness in eliminating organisms” value [2] is listed as “effective in eliminating a very broad range of organisms”.

For `CC1(C)[C@@H](O[C@H]2O[C@H](C(=O)O)[C@@H](O)[C@H](O)[C@H]2O[C@@H]2O[C@H](C(=O)O)[C@@H](O)[C@H](O)[C@H]2O)CC[C@]2(C)[C@H]3C(=O)C=C4[C@@H]5C[C@@](C)(C(=O)O)CC[C@]5(C)CC[C@@]4(C)[C@]3(C)CC[C@@H]12` [glycyrrhizin], the lung damage [3] is given as “less lung damage” and the protection from death [3] is given as “protected from death due to the virus”.
